{"source": "PubChem BioAssay AID1259407", "about": "(Chemical Carcinogenesis Research Information System (CCRIS), 2018)", "system": "CCRIS mutagenicity, Ames/micronucleus/aberration tests", "experiment": "CCRIS mutagenicity studies", "key": {"[1]": {"settings": "Test System: AMES SALMONELLA TYPHIMURIUM, Strain/Indicator: TA98, Metabolic Activation: NONE, Method: STANDARD PLATE"}, "[2]": {"settings": "Test System: AMES SALMONELLA TYPHIMURIUM, Strain/Indicator: TA98, Metabolic Activation: RAT, LIVER, S-9, AROCLOR 1254, Method: STANDARD PLATE"}, "[3]": {"settings": "Test System: AMES SALMONELLA TYPHIMURIUM, Strain/Indicator: TA100, Metabolic Activation: NONE, Method: STANDARD PLATE"}, "[4]": {"settings": "Test System: AMES SALMONELLA TYPHIMURIUM, Strain/Indicator: TA100, Metabolic Activation: RAT, LIVER, S-9, AROCLOR 1254, Method: STANDARD PLATE"}, "[5]": {"settings": "Test System: AMES SALMONELLA TYPHIMURIUM, Strain/Indicator: TA1535, Metabolic Activation: NONE, Method: STANDARD PLATE"}, "[6]": {"settings": "Test System: AMES SALMONELLA TYPHIMURIUM, Strain/Indicator: TA1535, Metabolic Activation: RAT, LIVER, S-9, AROCLOR 1254, Method: STANDARD PLATE"}, "[7]": {"settings": "Test System: AMES SALMONELLA TYPHIMURIUM, Strain/Indicator: TA1537, Metabolic Activation: NONE, Method: STANDARD PLATE"}, "[8]": {"settings": "Test System: AMES SALMONELLA TYPHIMURIUM, Strain/Indicator: TA1537, Metabolic Activation: RAT, LIVER, S-9, AROCLOR 1254, Method: STANDARD PLATE"}, "[9]": {"settings": "Test System: AMES SALMONELLA TYPHIMURIUM, Strain/Indicator: TA1538, Metabolic Activation: NONE, Method: STANDARD PLATE"}, "[10]": {"settings": "Test System: AMES SALMONELLA TYPHIMURIUM, Strain/Indicator: TA1538, Metabolic Activation: RAT, LIVER, S-9, AROCLOR 1254, Method: STANDARD PLATE"}, "[11]": {"settings": "Test System: AMES SALMONELLA TYPHIMURIUM, Strain/Indicator: TA1537, Metabolic Activation: NONE, Method: PREINCUBATION"}}, "note": "The source made the active and inactive calls. The rule behind the calls is not given here."}
{"smiles": "C=C(C)C(=O)OC(C)(C)C", "values": [{"measurement": "mutagenic call", "setting": "[1]", "result": "inactive; negative"}, {"measurement": "mutagenic call", "setting": "[2]", "result": "inactive; negative"}, {"measurement": "mutagenic call", "setting": "Test System: AMES SALMONELLA TYPHIMURIUM, Strain/Indicator: TA98, Metabolic Activation: RAT, LIVER, S-9, SODIUM PHENOBARBITAL, Method: STANDARD PLATE", "result": "inactive; negative"}, {"measurement": "mutagenic call", "setting": "[3]", "result": "inactive; negative"}, {"measurement": "mutagenic call", "setting": "[4]", "result": "inactive; negative"}, {"measurement": "mutagenic call", "setting": "Test System: AMES SALMONELLA TYPHIMURIUM, Strain/Indicator: TA100, Metabolic Activation: RAT, LIVER, S-9, SODIUM PHENOBARBITAL, Method: STANDARD PLATE", "result": "inactive; negative"}, {"measurement": "mutagenic call", "setting": "[5]", "result": "inactive; negative"}, {"measurement": "mutagenic call", "setting": "[6]", "result": "inactive; negative"}, {"measurement": "mutagenic call", "setting": "Test System: AMES SALMONELLA TYPHIMURIUM, Strain/Indicator: TA1535, Metabolic Activation: RAT, LIVER, S-9, SODIUM PHENOBARBITAL, Method: STANDARD PLATE", "result": "inactive; negative"}, {"measurement": "mutagenic call", "setting": "[7]", "result": "inactive; negative"}, {"measurement": "mutagenic call", "setting": "[8]", "result": "inactive; negative"}, {"measurement": "mutagenic call", "setting": "Test System: AMES SALMONELLA TYPHIMURIUM, Strain/Indicator: TA1537, Metabolic Activation: RAT, LIVER, S-9, SODIUM PHENOBARBITAL, Method: STANDARD PLATE", "result": "inactive; negative"}, {"measurement": "mutagenic call", "setting": "[9]", "result": "inactive; negative"}, {"measurement": "mutagenic call", "setting": "[10]", "result": "inactive; negative"}, {"measurement": "mutagenic call", "setting": "Test System: AMES SALMONELLA TYPHIMURIUM, Strain/Indicator: TA1538, Metabolic Activation: RAT, LIVER, S-9, SODIUM PHENOBARBITAL, Method: STANDARD PLATE", "result": "inactive; negative"}]}
{"smiles": "COc1ccc2nc(N)sc2c1", "values": [{"measurement": "mutagenic call", "setting": "Test System: AMES SALMONELLA TYPHIMURIUM, Strain/Indicator: TA98, Metabolic Activation: HAMSTER, LIVER, S-9, AROCLOR 1254, Method: STANDARD PLATE", "result": "active; positive"}, {"measurement": "mutagenic call", "setting": "[1]", "result": "active; positive"}, {"measurement": "mutagenic call", "setting": "[2]", "result": "active; positive"}, {"measurement": "mutagenic call", "setting": "Test System: AMES SALMONELLA TYPHIMURIUM, Strain/Indicator: TA100, Metabolic Activation: HAMSTER, LIVER, S-9, AROCLOR 1254, Method: STANDARD PLATE", "result": "active; positive"}, {"measurement": "mutagenic call", "setting": "[3]", "result": "inactive; negative"}, {"measurement": "mutagenic call", "setting": "[4]", "result": "active; positive"}, {"measurement": "mutagenic call", "setting": "Test System: AMES SALMONELLA TYPHIMURIUM, Strain/Indicator: TA1535, Metabolic Activation: HAMSTER, LIVER, S-9, AROCLOR 1254, Method: STANDARD PLATE", "result": "active; positive"}, {"measurement": "mutagenic call", "setting": "[5]", "result": "inactive; negative"}, {"measurement": "mutagenic call", "setting": "[6]", "result": "active; positive"}, {"measurement": "mutagenic call", "setting": "Test System: AMES SALMONELLA TYPHIMURIUM, Strain/Indicator: TA1537, Metabolic Activation: HAMSTER, LIVER, S-9, AROCLOR 1254, Method: STANDARD PLATE", "result": "active; positive"}, {"measurement": "mutagenic call", "setting": "[7]", "result": "inactive; negative"}, {"measurement": "mutagenic call", "setting": "[8]", "result": "active; positive"}, {"measurement": "mutagenic call", "setting": "Test System: AMES SALMONELLA TYPHIMURIUM, Strain/Indicator: TA1538, Metabolic Activation: HAMSTER, LIVER, S-9, AROCLOR 1254, Method: STANDARD PLATE", "result": "active; positive"}, {"measurement": "mutagenic call", "setting": "[9]", "result": "active; positive"}, {"measurement": "mutagenic call", "setting": "[10]", "result": "active; positive"}, {"measurement": "mutagenic call", "setting": "Test System: MOUSE LYMPHOMA, Strain/Indicator: L5178Y (TK+/TK-), Metabolic Activation: NONE, Method: SUSPENSION/PLATE", "result": "inactive; negative. reevaluation of results: negative"}, {"measurement": "mutagenic call", "setting": "Test System: MOUSE LYMPHOMA, Strain/Indicator: L5178Y (TK+/TK-), Metabolic Activation: RAT, LIVER, S-9, AROCLOR 1254, Method: SUSPENSION/PLATE", "result": "active; positive. reevaluation of results: positive"}]}
{"smiles": "O=C1CCc2c1ccc1c2ccc2ccccc21", "values": [{"measurement": "mutagenic call", "setting": "Test System: AMES SALMONELLA TYPHIMURIUM, Strain/Indicator: TA100, Metabolic Activation: RAT, LIVER, MICROSOMES, AROCLOR 1254, Method: STANDARD PLATE", "result": "active; positive"}, {"measurement": "mutagenic call", "setting": "Test System: AMES SALMONELLA TYPHIMURIUM, Strain/Indicator: TA100, Metabolic Activation: RAT, LIVER, MICROSOMES, BENZO[A]PYRENE, Method: STANDARD PLATE", "result": "inactive; negative"}, {"measurement": "mutagenic call", "setting": "Test System: AMES SALMONELLA TYPHIMURIUM, Strain/Indicator: TA100, Metabolic Activation: RAT, LIVER, MICROSOMES, CLOFIBRATE, Method: STANDARD PLATE", "result": "inactive; negative"}, {"measurement": "mutagenic call", "setting": "Test System: AMES SALMONELLA TYPHIMURIUM, Strain/Indicator: TA100, Metabolic Activation: RAT, LIVER, MICROSOMES, DEXAMETHASONE, Method: STANDARD PLATE", "result": "inactive; negative"}, {"measurement": "mutagenic call", "setting": "Test System: AMES SALMONELLA TYPHIMURIUM, Strain/Indicator: TA100, Metabolic Activation: RAT, LIVER, MICROSOMES, ISONIAZID, Method: STANDARD PLATE", "result": "inactive; negative"}, {"measurement": "mutagenic call", "setting": "Test System: AMES SALMONELLA TYPHIMURIUM, Strain/Indicator: TA100, Metabolic Activation: RAT, LIVER, MICROSOMES, PHENOBARBITONE, Method: STANDARD PLATE", "result": "inactive; negative"}]}
{"smiles": "CNCCO", "values": [{"measurement": "mutagenic call", "setting": "Test System: AMES SALMONELLA TYPHIMURIUM, Strain/Indicator: TA98, Metabolic Activation: HAMSTER, LIVER, S-9, AROCLOR 1254 (10%), Method: PREINCUBATION", "result": "inactive; negative"}, {"measurement": "mutagenic call", "setting": "Test System: AMES SALMONELLA TYPHIMURIUM, Strain/Indicator: TA98, Metabolic Activation: NONE, Method: PREINCUBATION", "result": "inactive; negative"}, {"measurement": "mutagenic call", "setting": "Test System: AMES SALMONELLA TYPHIMURIUM, Strain/Indicator: TA98, Metabolic Activation: RAT, LIVER, S-9, AROCLOR 1254 (10%), Method: PREINCUBATION", "result": "inactive; negative"}, {"measurement": "mutagenic call", "setting": "Test System: AMES SALMONELLA TYPHIMURIUM, Strain/Indicator: TA100, Metabolic Activation: HAMSTER, LIVER, S-9, AROCLOR 1254 (10%), Method: PREINCUBATION", "result": "inactive; negative"}, {"measurement": "mutagenic call", "setting": "Test System: AMES SALMONELLA TYPHIMURIUM, Strain/Indicator: TA100, Metabolic Activation: NONE, Method: PREINCUBATION", "result": "inactive; negative"}, {"measurement": "mutagenic call", "setting": "Test System: AMES SALMONELLA TYPHIMURIUM, Strain/Indicator: TA100, Metabolic Activation: RAT, LIVER, S-9, AROCLOR 1254 (10%), Method: PREINCUBATION", "result": "inactive; negative"}, {"measurement": "mutagenic call", "setting": "Test System: AMES SALMONELLA TYPHIMURIUM, Strain/Indicator: TA1535, Metabolic Activation: HAMSTER, LIVER, S-9, AROCLOR 1254 (10%), Method: PREINCUBATION", "result": "inactive; negative"}, {"measurement": "mutagenic call", "setting": "Test System: AMES SALMONELLA TYPHIMURIUM, Strain/Indicator: TA1535, Metabolic Activation: NONE, Method: PREINCUBATION", "result": "inactive; negative"}, {"measurement": "mutagenic call", "setting": "Test System: AMES SALMONELLA TYPHIMURIUM, Strain/Indicator: TA1535, Metabolic Activation: RAT, LIVER, S-9, AROCLOR 1254 (10%), Method: PREINCUBATION", "result": "inactive; negative"}, {"measurement": "mutagenic call", "setting": "Test System: AMES SALMONELLA TYPHIMURIUM, Strain/Indicator: TA1537, Metabolic Activation: HAMSTER, LIVER, S-9, AROCLOR 1254 (10%), Method: PREINCUBATION", "result": "inactive; negative"}, {"measurement": "mutagenic call", "setting": "[11]", "result": "inactive; negative"}, {"measurement": "mutagenic call", "setting": "Test System: AMES SALMONELLA TYPHIMURIUM, Strain/Indicator: TA1537, Metabolic Activation: RAT, LIVER, S-9, AROCLOR 1254 (10%), Method: PREINCUBATION", "result": "inactive; negative"}]}
{"smiles": "Cc1ccc2nc3ccccc3c(N)c2c1", "values": [{"measurement": "mutagenic call", "setting": "[11]", "result": "active; positive"}]}
{"smiles": "CC(C)CC(=O)Nc1snc2ccccc12", "values": [{"measurement": "mutagenic call", "setting": "[3]", "result": "inactive; negative"}, {"measurement": "mutagenic call", "setting": "Test System: AMES SALMONELLA TYPHIMURIUM, Strain/Indicator: TA100, Metabolic Activation: S-9, Method: STANDARD PLATE", "result": "inactive; negative"}, {"measurement": "mutagenic call", "setting": "[7]", "result": "inactive; negative"}, {"measurement": "mutagenic call", "setting": "Test System: AMES SALMONELLA TYPHIMURIUM, Strain/Indicator: TA1537, Metabolic Activation: S-9, Method: STANDARD PLATE", "result": "inactive; negative"}]}
